Test results from patent US20250288576A1, “SPECIFIC TETRADENTATE COPPER CHELATORS AS ANTICANCER AGENTS” (Guangdong University of Technology, priority 2024, published 2025).

Tests used:
metastatic melanoma A375 = test: MTT cell viability assay, A375; type: cell-based; conditions: Homo sapiens, A-375, 48 h incubation, mean ± SD of at least three experiments
Description: (§1) The cytotoxicity of several compounds from the TDMQ series, especially TDMQ20, was evaluated on several human cancer cell lines. The clinically used anticancer drug 5-fluorouracil (5-FU) was used as comparator.
(§2) The targeted human cancer lines were 1) the metastatic melanoma A375, 2) the non-small cell lung adenocarcinoma A549, 3) the melanoma COLO-829, 4) the cervical cancer HeLa, 5) the hepatocellular carcinoma HepG2. The human immortalized keratinocyte cell line HaCaT was used as non-cancer reference cell line.
(§3) The MTT test was used to measure the cell viability. In this test, the applied colorless tetrazolium salt is reduced by mitochondrial succinate dehydrogenase, thus producing the violet formazan derivative that is quantified by UV-visible spectrometry at 570 nm.

[1] = test system: immortalized keratinocyte cell line HaCaT; test: MTT cell viability assay, HaCaT (non-cancer reference); type: cell-based, human; conditions: 48 h incubation, non-cancer cells, mean ± SD of at least three experiments
Description: as §1, §2, §3

cervical cancer HeLa = test: MTT cell viability assay, HeLa; type: cell-based, human; conditions: 48 h incubation, mean ± SD of at least three experiments
Description: as §1, §2, §3

melanoma COLO-829 = test: MTT cell viability assay, COLO-829; type: cell-based; conditions: Homo sapiens, 48 h incubation, mean ± SD of at least three experiments
Description: as §1, §2, §3

[2] = test system: hepatocellular carcinoma HepG2; test: MTT cell viability assay, HepG2; type: cell-based, human; conditions: 48 h incubation, mean ± SD of at least three experiments
Description: as §1, §2, §3

[3] = test system: non-small cell lung adenocarcinoma A549; test: MTT cell viability assay, A549; type: cell-based, human; conditions: for IC50: MTT, 48 h incubation, mean ± SD of at least three experiments
Description: as §1, §2, §3

HeLa cells [4] = test: Colony-forming assay; type: cell-based, human; conditions: 14th day after treatment
Description: (A) Representative images of colonies formed by HeLa cells at the 14th day after treatment with increasing concentrations of TDMQ20. (B) Quantitative analysis of this clonogenicity assay. **p<0.01, ****p<0.0001 vs. control. “Control” stands for untreated cells.
Colony-forming assay. The proliferation of HeLa cells exposed to various concentrations of TDMQ20 was evaluated at the 14th day after treatment.

HeLa cells [5] = test: Wound healing assay (scratch assay); type: cell-based, human; conditions: 14.5 μM, 24 h
Description: (A) Representative images of wounds formed by HeLa cells after treatment with TDMQ20. (B) Quantitative analysis of the wound closure upon treatment by TDMQ20. ****p<0.0001 vs. control. “Control” stands for untreated cells. Scale bar: 250 μm.
Wound healing assay (or “scratch assay”). The migratory ability of Hela cells in the presence of TDMQ20 was evaluated using the wound healing assay monitored by optical microscopy. Measurement after 24 h of the width of the “wound” created in a cell monolayer quantify the migration rate of the cells to close the wound. This method mimics cell migration during wound healing in vivo. For cancer cells, cell migration is involved in several processes such as tumor invasion, neo-angiogenesis and metastasis (X. Wang et al., BMC Pharmacol. Toxicol. 2019, 20, 4).

HeLa cells [6] = test: ROS production, DCF fluorescence (H2DCF-DA) flow cytometry; type: cell-based, human; conditions: 48 h incubation
Description: FIG. 4. ROS production induced by TDMQ20 in HeLa cells, detected by DCF fluorescence after 48 h of incubation. ***p<0.001, ****p<0.0001.
The most straightforward technique for measuring the production of […] in cells is the use of the cell permeable fluorescent probe 2′,7′-dichlorodihydrofluorescein diacetate (H2DCF-DA). In the presence of ROS, predominantly H2O2, H2DCF is rapidly oxidized to 2′,7′-dichlorofluorescein (DCF) which is highly fluorescent, with excitation and emission wavelengths of 498 and 522 nm, respectively. The stained cells were analyzed by flow cytometry and analyzed by the FlowJo v.Xsoftware.

HeLa cells [7] = test: Mitochondrial membrane potential, JC-1 staining flow cytometry; type: cell-based, human; conditions: increasing concentration of TDMQ20, 48 h
Description: FIG. 5. (A) Red/green fluorescence of HeLa cells treated with various concentrations of TDMQ20, and stained by JC-1, as an indirect measure of mitochondrial membrane potential (ΔΨm). Detection by flow cytometry. (B) Histograms presenting data of panel A as mean values of three independent experiments±SD; ****p<0.0001 vs. control.
The higher is the ΔΨm, the more elevated is the red shift of the dye (more aggregates formed); vice-versa, the lower is the ΔΨm of the mitochondria and the lower is the red to green ratio of the fluorescent marker (few aggregates formed). Therefore, the ratio of red/green fluorescence intensities is significant of mitochondrial integrity and function, and mitochondrial depolarization is indicated by a reduction in the red to green fluorescence intensity ratio.
This method was used to evaluate the mitochondrial membrane potential in HeLa cells incubated with various concentrations of TDMQ20 for 48 h, using staining with JC-1, and quantification by flow cytometry treated with the FlowJo v. X software.

HeLa cells [8] = test: Apoptosis, annexin V-FITC/PI flow cytometry; type: cell-based, human; conditions: 48 h incubation
Description: FIG. 3. Pro-apoptotic activity of TDMQ20 on HeLa cells after 48 h of incubation. (A) Quantitative analysis of necrotic cells (quadrant Q1), early apoptotic cells (quadrant Q2), advanced apoptotic cells (quadrant Q3) and non-apoptotic cells (quadrant Q4), using annexin V/propidium iodide (PI) staining and detection by flow cytometry. “Control” stands for untreated cells. (B) Histograms represent the proportion of apoptotic cells (Q2+Q3) within the flow cytometry charts; “ns” stands for p>0.05, ****p<0.0001 vs. control.
The pro-apoptotic activity of TDMQ20 in Hela cells was evaluated after 48 h of incubation with the drug, using the annexin V-FITC/PI method (FITC and PI stand for fluoresceine-5-isothiocyanate and propidium iodide, respectively). After staining, live cells show little or no fluorescence (annexin V−/PI−), early apoptosis cells show green fluorescence (annexin V+/PI−), late apoptosis cells and necrosis cells show red and green fluorescence (annexin V+/PI+). Cells were detected by flow cytometry. IDEAS software was used for acquisition of data and FlowJo v. X software was used for analysis of data. The total proportion of apoptotic cells, including early apoptosis (quadrants Q2) or late apoptosis (quadrants Q3) or necrosis (quadrants Q1), accounted for 51%, 15% and 9% when HeLa cells were treated with TDMQ20 at the concentration of […], 7.3 μM and 3.7 μM, respectively. So, TDMQ20 induced the apoptosis of HeLa cells in a dose-dependent manner.

O=c1[nH]cc(F)c(=O)[nH]1 [5-FU, 5-fluorouracil, reference compound]
IC50 (metastatic melanoma A375): 68.5 ± 4 µM
IC50 ([1]; Homo sapiens, HaCaT, 48 h): 30 µM
IC50 (cervical cancer HeLa; Homo sapiens, HeLa, 48 h): 20.3 ± 4.6 µM
IC50 (melanoma COLO-829): 48.7 ± 0.7 µM
IC50 ([2]; Homo sapiens, HepG2, 48 h): 46.7 ± 4.7 µM
IC50 ([3]; Homo sapiens, A549, 48 h): 72.6 ± 10 µM

CN(C)CCNCCc1ccc2c(Cl)cc(Cl)c(N)c2n1 [TDMQ20]
IC50 (metastatic melanoma A375): 38.1 ± 7 µM
IC50 [1]: 41.1 ± 4.8 µM
IC50 ([1]; Homo sapiens, HaCaT, 48 h): 41 µM
HeLa cells in colony-forming assay (HeLa cells [4]; TDMQ20 = 12 μM): not detectable
Number of HeLa cells in cultures (colony-forming ability) (HeLa cells [4]; increasing drug concentration from 1.5 to 12 μM): drastically decreased
IC50 (cervical cancer HeLa): 14.5 ± 0.8 µM
IC50 (cervical cancer HeLa; Homo sapiens, HeLa, 48 h): 14 to 16 µM
IC50 (melanoma COLO-829): 40.2 ± 4.9 µM
HeLa cell migration to close a wound (HeLa cells [5]): significantly inhibited
IC50 [2]: 16.6 ± 4.7 µM
IC50 ([2]; Homo sapiens, HepG2, 48 h): 14 to 16 µM
Fluorescence of DCF, % of the control cells (HeLa cells [6]; 3.7 μM): 125%
Fluorescence of DCF, % of the control cells (HeLa cells [6]; 7.3 μM): 138%
Fluorescence of DCF, % of the control cells (HeLa cells [6]; 14.5 μM): 150%
JC-1 red/green fluorescence ratio (mitochondrial transmembrane potential ΔΨm) (HeLa cells [7]): drastic decrease
Total proportion of apoptotic cells (early, late apoptosis, necrosis) (HeLa cells [8]; 3.7 μM): 9%
Total proportion of apoptotic cells (early, late apoptosis, necrosis) (HeLa cells [8]; 7.3 μM): 15%
Total proportion of apoptotic cells (early, late apoptosis, necrosis) (HeLa cells [8]; 14.5 μM): 51%
IC50 ([3]; Homo sapiens, A549, 48 h): 14 to 16 µM
IC50 [3]: 16.2 ± 2.9 µM
Cytotoxic activity relative to the reference drug 5-FU ([3]; lung adenocarcinoma A549 cells): four times higher
